Assay results taken from ChEMBL document CHEMBL1201862, “PubChem BioAssay data set” (2004).
Calls of active or inactive are those of the source.

Experiments:
[1] = target: E3 ubiquitin-protein ligase Mdm2 (Homo sapiens, UniProt Q00987); experiment: MDM2-luc reporter signal enhancers, multi-concentration potency testing, MDM2 ubiquitin-protein ligase inhibitor program, whole-cell format, luminescence detection, 384-well microplate (AID 1394); assay type: functional;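 further: MDM2 E3 inhibitors raise luminescence so EC50 is for signal enhancement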
NADPH oxidase 1 [2] = target: T1, NADPH oxidase 1 (Homo sapiens, UniProt Q9Y5S8); assay type: functional, cell-based
Genome polyprotein [3] = target: Genome polyprotein (Hepatitis C virus, UniProt Q2Q167); experiment: disruption of hepatitis C core self-association – biochemical, TR-FRET, dose response (AID 2159); design: species or system Hepacivirus hominis;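 further: blocks dimerization of HCV core protein measured by TR-FRET between tagged core106 pairs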
[4] = RAM pathway signaling blockade in S. cerevisiae – dose response (AID 1307); assay type: functional
[5] = target: Eukaryotic translation initiation factor 4E (Mus musculus, UniProt P63073); experiment: blockers of eIF4G binding by eIF4E – biochemical, TR-FRET, dose response (AID 855); assay type: functional;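 further: potency for disrupting eIF4E binding to eIF4GI seen as loss of FRET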
Nonstructural protein 1 = Nonstructural protein 1 (Influenza A virus, UniProt Q194T2); assay type: functional, Influenza A virus (A/California/07/2009(H1N1))
Vero [6] = experiment: viability of Vero cells under compound – cytotoxicity control for flavivirus capping enzyme inhibitors (AID 588742); assay type: functional; conditions: Chlorocebus sabaeus
Genome polyprotein [7] = target: Genome polyprotein (dengue virus type 2, UniProt P29990); experiment: flavivirus cap methylation enzyme inhibition – biochemical, confirmation dose response, primary screen (AID 588689); assay type: functional
[8] = target: T2, Histone-lysine N-methyltransferase NSD2 (Homo sapiens, UniProt O96028); assay type: biochemical
T2 sequence (O96028 whole entry): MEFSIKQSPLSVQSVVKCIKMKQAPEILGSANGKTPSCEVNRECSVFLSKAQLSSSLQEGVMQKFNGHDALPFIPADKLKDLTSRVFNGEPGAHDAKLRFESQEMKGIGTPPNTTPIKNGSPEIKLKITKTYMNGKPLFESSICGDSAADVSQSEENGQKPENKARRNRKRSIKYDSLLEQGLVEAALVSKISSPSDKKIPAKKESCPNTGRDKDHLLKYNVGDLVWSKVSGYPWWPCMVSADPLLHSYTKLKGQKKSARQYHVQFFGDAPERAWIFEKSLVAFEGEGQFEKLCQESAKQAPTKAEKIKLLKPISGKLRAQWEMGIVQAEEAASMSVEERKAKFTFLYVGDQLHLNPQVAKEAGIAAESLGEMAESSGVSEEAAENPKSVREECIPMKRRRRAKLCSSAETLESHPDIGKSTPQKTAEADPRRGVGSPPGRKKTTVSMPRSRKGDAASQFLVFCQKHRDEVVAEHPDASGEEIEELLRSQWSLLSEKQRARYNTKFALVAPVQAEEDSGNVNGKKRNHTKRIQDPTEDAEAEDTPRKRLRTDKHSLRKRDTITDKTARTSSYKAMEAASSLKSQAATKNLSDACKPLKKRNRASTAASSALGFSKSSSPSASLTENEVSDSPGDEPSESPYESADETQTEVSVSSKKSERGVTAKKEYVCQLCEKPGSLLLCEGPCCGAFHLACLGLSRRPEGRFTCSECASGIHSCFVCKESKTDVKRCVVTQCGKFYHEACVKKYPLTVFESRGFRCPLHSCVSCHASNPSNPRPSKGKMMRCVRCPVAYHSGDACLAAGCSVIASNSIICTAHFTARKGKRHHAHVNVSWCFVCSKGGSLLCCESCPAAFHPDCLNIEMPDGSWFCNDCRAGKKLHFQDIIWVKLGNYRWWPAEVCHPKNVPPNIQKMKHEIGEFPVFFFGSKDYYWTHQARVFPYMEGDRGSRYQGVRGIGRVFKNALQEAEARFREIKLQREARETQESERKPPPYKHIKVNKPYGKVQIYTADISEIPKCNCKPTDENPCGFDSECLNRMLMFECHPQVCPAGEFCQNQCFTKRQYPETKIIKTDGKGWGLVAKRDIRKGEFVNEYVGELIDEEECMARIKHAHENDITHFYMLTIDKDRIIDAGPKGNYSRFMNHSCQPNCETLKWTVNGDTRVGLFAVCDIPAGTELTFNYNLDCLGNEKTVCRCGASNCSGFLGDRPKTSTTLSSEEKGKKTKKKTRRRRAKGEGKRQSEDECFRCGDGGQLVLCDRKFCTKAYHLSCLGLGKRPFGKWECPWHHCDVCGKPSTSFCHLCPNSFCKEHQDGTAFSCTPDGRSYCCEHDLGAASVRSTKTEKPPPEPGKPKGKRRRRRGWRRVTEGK

NADPH oxidase 1 [9] = target: T1, NADPH oxidase 1; experiment: Late-stage luminescence-based cell-based dose response assay to identify inhibitors of NADPH oxidase 1 (NOX1): Purchased analogs 2.; assay type: functional
Vero [10] = experiment: mammalian cell viability reduction – secondary assay, cytotoxicity control for West Nile virus antiviral project, dose response (AID 1650); assay type: functional; conditions: Chlorocebus sabaeus
[11] = target: T3, Type-1 angiotensin II receptor (Homo sapiens, UniProt P30556); experiment: agonist activity at AGTR1 – cell-based, uHTS hits, selectivity assay for APJ receptor agonist project, dose response (AID 488865); assay type: functional;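 further: beta-arrestin recruitment to AT1 measured by enzyme fragment complementation luminescence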
T3 sequence (P30556 whole entry): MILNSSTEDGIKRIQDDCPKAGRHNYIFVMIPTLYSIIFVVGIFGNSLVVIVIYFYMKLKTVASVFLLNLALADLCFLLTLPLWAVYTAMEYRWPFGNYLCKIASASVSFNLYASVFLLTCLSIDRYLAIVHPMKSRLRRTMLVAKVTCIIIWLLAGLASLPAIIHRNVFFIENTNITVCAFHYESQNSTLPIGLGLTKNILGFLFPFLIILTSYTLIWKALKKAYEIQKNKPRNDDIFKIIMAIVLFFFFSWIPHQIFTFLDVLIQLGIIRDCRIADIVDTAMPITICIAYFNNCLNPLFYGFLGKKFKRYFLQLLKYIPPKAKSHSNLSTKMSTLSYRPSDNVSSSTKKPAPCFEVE

[12] = M. tuberculosis H37Rv growth inhibitors, H37Rv strain (AID 1626); assay type: functional
[13] = M. tuberculosis growth inhibition, HTS (AID 449762); assay type: functional
Leucine aminopeptidase = target: T4, Leucine aminopeptidase (Plasmodium falciparum 3D7, UniProt Q8IL11); experiment: P. falciparum M17LAP inhibitors, primary screen, biochemical, fluorogenic H-Leu-NHMec substrate, 1536-well (AID 1619); assay type: functional
T4 sequence (Q8IL11 whole entry): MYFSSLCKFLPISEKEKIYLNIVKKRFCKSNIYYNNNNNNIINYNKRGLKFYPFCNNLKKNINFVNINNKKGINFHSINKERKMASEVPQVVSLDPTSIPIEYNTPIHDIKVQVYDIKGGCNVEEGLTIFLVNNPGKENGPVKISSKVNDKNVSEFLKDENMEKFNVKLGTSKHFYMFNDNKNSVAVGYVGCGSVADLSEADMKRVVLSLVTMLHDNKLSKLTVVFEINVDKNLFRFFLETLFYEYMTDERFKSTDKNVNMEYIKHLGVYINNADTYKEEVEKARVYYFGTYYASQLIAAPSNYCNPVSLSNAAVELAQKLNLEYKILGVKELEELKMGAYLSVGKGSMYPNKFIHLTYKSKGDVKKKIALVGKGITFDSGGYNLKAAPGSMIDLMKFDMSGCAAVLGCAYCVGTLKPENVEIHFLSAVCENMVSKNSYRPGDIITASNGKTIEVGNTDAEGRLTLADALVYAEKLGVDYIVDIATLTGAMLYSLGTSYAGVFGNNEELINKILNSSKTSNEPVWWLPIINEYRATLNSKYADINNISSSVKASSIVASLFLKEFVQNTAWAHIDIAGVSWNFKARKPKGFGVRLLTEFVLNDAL

Aspartyl aminopeptidase = Aspartyl aminopeptidase (Plasmodium falciparum 3D7, UniProt Q8I2J3); experiment: Counterscreen for inhibitors of M1 and M17 aminopeptidases: QFRET-based biochemical high throughput dose response assay for inhibitors of the Plasmodium falciparum M18 Aspartyl Aminopeptidase (PFM18AAP). [Related PubChem assays: 1619 (Screening assay (M17LAP inhibitors).), 1445 (Screening assay (M1AAP inhibitors).)]
Procathepsin L = Procathepsin L (Homo sapiens, UniProt P07711); experiment: CTSL1 protease inhibition – biochemical, QFRET, 1536-well, counter-screen for M1/M17 aminopeptidase inhibitor project, dose response (AID 2214)
[14] = target: T5, Probable nicotinate-nucleotide adenylyltransferase (Staphylococcus aureus (strain N315), UniProt P65502); assay type: functional, Staphylococcus aureus subsp. aureus N315;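 on IC50 Mean: confirmatory dose-response retesting of NadD inhibitor hits first found in an ultra-high-throughput screen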
[15] = target: T5, Probable nicotinate-nucleotide adenylyltransferase; assay type: functional, Staphylococcus aureus subsp. aureus N315; conditions: read-out: IC50_Mean
[16] = Luminescent dose response cell-based high throughput screening assay for inhibitors of the Janus kinase 2 mutant JAK2V617F. [Related pubchem assays: 1446 (Primary screen.), 1521 (Confirmation assay.), 1486 (Counter screen.)]; assay type: functional
[17] = target: T6, RNA-binding protein pos-1 (Caenorhabditis elegans, UniProt G5EF15); experiment: disruptors of C. elegans POS-1 RNA interaction – biochemical, fluorescence polarization, dose response (AID 1964);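 further: purified POS-1 fused to maltose binding protein made in E. coli; potency of compounds blocking POS-1 binding to fluorescent RNA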
T6 sequence (G5EF15 whole entry): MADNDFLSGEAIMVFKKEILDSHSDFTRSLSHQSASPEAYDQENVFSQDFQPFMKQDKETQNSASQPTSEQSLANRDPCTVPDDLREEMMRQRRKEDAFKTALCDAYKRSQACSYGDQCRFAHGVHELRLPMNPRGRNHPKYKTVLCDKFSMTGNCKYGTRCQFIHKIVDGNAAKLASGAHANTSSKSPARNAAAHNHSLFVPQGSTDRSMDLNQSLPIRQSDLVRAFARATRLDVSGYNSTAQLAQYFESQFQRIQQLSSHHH

[18] = target: T7, Zinc finger protein mex-5 (Caenorhabditis elegans, UniProt Q9XUB2); experiment: potency of MEX-5 RNA-binding blockers – biochemical, C. elegans, fluorescence polarization, dose response (AID 1960)
T7 sequence (Q9XUB2 whole entry): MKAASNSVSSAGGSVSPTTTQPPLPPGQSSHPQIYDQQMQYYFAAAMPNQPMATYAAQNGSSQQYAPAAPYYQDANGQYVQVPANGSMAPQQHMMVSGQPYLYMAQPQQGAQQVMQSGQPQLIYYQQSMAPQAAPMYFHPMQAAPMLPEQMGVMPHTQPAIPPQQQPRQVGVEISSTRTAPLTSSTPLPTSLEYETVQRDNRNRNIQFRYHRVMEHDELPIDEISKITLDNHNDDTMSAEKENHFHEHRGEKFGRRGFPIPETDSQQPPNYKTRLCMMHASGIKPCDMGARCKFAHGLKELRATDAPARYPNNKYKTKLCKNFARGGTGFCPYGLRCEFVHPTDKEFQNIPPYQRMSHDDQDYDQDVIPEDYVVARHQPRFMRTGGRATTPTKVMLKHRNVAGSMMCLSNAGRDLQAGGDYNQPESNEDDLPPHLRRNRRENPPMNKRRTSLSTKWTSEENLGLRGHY

[19] = target: Heat shock protein HSP 90-alpha (Homo sapiens, UniProt P07900); experiment: Luminescence-based dose response biochemical high throughput screening assay for inhibitors of the Heat Shock Protein 90 (HSP90). [Related pubchem assays: 1831 (Summary AID.), 1846 (Confirmation screen.), 1789 (Primary screen.)]

T5 sequence (P65502 whole entry): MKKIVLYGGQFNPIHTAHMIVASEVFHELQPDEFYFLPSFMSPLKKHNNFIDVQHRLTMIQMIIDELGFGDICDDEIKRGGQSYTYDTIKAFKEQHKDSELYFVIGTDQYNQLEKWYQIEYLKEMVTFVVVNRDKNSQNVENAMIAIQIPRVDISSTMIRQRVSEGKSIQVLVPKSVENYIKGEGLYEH
T1 sequence (Q9Y5S8 whole entry): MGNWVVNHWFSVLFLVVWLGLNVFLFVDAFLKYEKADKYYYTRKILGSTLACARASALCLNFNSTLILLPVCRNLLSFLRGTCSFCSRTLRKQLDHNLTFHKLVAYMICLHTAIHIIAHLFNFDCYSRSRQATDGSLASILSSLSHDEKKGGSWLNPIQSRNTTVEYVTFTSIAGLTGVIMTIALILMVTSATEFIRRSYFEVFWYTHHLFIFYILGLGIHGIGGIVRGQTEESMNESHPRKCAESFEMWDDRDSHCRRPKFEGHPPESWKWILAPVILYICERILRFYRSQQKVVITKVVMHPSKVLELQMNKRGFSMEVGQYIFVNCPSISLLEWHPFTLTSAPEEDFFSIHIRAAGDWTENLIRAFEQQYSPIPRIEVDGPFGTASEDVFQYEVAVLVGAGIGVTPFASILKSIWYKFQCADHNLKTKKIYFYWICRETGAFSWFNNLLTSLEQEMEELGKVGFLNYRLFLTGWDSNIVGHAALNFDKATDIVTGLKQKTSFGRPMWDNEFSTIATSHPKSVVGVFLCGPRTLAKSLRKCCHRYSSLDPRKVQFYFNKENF
Genome polyprotein (Hepatitis C virus, UniProt Q2Q167), sequence (Q2Q167 whole entry): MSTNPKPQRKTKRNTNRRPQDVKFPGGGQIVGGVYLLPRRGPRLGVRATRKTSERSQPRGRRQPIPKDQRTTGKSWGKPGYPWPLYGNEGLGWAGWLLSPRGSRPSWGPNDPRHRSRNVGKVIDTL
Eukaryotic translation initiation factor 4E, sequence (P63073 whole entry): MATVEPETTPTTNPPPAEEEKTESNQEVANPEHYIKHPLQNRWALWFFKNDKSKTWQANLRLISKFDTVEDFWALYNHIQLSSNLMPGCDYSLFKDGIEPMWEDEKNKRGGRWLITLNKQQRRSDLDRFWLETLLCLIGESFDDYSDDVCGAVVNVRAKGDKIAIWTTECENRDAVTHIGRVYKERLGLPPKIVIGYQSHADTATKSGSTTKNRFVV
Genome polyprotein (dengue virus type 2, UniProt P29990), sequence (P29990 2492-3391 limits assumed): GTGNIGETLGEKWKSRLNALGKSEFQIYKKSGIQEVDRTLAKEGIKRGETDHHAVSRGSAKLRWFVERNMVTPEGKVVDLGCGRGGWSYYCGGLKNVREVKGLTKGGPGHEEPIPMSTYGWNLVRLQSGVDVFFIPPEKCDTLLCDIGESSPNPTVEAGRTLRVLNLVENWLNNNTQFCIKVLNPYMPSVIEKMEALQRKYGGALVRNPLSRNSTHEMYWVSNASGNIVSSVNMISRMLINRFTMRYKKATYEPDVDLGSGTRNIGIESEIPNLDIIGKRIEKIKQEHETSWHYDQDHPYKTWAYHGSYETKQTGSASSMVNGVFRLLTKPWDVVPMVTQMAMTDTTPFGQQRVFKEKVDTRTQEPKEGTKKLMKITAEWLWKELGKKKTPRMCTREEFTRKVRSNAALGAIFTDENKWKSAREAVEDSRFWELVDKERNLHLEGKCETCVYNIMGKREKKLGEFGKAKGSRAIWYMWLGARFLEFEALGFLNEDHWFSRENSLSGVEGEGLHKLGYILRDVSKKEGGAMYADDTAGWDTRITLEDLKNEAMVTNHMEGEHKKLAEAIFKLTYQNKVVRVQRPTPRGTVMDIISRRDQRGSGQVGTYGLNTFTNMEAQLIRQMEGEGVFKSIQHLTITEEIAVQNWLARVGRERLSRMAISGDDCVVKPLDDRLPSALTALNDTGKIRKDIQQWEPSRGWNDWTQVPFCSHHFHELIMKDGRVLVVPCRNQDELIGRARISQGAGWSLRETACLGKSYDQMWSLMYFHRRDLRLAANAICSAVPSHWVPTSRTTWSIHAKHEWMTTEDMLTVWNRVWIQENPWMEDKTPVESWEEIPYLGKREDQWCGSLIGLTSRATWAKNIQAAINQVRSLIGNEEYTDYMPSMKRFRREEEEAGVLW
Aspartyl aminopeptidase, sequence (Q8I2J3 whole entry): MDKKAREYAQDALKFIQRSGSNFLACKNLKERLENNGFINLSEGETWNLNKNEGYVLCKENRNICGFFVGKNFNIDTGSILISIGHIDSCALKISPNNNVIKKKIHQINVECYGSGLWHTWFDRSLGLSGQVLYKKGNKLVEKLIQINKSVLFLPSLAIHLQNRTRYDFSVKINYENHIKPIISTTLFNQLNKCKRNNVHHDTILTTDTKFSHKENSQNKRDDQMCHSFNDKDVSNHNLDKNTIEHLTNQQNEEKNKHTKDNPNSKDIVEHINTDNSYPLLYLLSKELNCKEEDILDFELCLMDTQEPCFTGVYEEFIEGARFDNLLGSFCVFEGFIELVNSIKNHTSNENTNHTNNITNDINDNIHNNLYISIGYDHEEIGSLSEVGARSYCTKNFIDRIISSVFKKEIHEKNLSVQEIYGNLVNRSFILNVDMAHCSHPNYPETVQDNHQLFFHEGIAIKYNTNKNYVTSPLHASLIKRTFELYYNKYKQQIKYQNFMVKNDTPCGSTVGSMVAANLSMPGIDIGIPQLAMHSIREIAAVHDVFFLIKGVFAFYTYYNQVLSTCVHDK
E3 ubiquitin-protein ligase Mdm2, sequence (Q00987 whole entry): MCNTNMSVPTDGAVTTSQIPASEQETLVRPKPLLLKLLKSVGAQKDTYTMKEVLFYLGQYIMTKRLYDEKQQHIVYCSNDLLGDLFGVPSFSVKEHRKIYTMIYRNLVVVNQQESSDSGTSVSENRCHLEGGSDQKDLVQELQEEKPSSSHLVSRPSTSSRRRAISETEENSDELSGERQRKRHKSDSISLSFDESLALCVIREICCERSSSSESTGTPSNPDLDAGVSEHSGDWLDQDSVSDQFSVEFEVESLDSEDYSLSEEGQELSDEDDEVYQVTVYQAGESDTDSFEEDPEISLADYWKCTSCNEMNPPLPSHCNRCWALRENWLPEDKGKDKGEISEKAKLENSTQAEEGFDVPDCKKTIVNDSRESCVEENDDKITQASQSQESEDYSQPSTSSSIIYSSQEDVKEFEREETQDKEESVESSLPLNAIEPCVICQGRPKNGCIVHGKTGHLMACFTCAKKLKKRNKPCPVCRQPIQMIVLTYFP
Procathepsin L, sequence (P07711 whole entry): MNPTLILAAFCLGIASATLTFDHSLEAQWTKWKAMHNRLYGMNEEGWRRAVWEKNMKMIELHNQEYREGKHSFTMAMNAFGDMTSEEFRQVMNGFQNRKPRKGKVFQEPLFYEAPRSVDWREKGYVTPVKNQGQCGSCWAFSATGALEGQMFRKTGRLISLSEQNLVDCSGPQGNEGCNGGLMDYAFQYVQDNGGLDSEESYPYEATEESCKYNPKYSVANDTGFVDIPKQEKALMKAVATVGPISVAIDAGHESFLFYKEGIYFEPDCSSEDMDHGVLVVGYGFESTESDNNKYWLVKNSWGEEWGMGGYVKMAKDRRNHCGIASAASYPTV
Nonstructural protein 1, sequence (Q194T2 whole entry): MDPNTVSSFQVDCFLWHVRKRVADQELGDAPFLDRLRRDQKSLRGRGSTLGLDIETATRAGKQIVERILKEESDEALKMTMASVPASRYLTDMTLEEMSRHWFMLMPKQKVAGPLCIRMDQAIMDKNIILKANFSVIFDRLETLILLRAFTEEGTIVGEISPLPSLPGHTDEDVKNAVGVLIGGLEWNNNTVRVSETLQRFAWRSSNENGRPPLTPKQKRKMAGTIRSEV

CC(=O)c1ccc(OCC(O)Cn2nnc3ccccc32)cc1 (stereo not drawn)
EC50 [1]: 12.7 µM (not active)

C(=N\Nc1ccccc1)/c1ccccc1
IC50 (NADPH oxidase 1 [2]): 13 µM (active)

NS(=O)(=O)c1ccc(NC(=O)c2ccc(S(=O)(=O)N3CCc4ccccc43)cc2)cc1
IC50 (Genome polyprotein [3]): > 49.8 µM (not active)

Cc1cc(C)c(Nc2cc(S(=O)(=O)O)c(N)c3c2C(=O)c2ccccc2C3=O)c(C)c1 [ACID BLUE 129]
IC50 [4]: 139 µM (active)
IC50 [5]: 26.1 µM (inactive)
IC50 (Nonstructural protein 1): 3.96 µM (active)
CC50 (Vero [6]): > 40 µM (active)
IC50 (Genome polyprotein [7]): 21.5 µM (active)
AC50 [8]: 3.75 µM (active)

CC(=O)Nc1ccc(CC(=O)Nc2ccc(Oc3ccc(Br)cc3)cc2)cc1
IC50 (NADPH oxidase 1 [9]): > 17 µM (not active)

CCOC(=O)N1CCN(S(=O)(=O)c2ccc(C(=O)N(CCCN(C)C)c3nc4ccc(Cl)cc4s3)cc2)CC1
CC50 (Vero [10]): 10.1 µM (active)
EC50 [11]: > 100 µM (inactive)

CCOC(=O)N1CCN=C1SCc1ccc(C(F)(F)F)cc1
IC50 [12]: > 100 µM (active)
IC50 [13]: > 100 µM (active)

CCn1c2ccccc2c2cc(NC(=O)CSc3nccc(O)n3)ccc21
IC50 (Leucine aminopeptidase): 1.41 µM (active)
IC50 (Aspartyl aminopeptidase): > 73.5 µM (not active)
IC50 (Procathepsin L): > 59.6 µM (not active)
IC50 [14]: 15.3 µM (active)
IC50 [15]: 42.4 µM (active)

O=c1oc2ccc(Cl)cc2nc1/C=C(\O)c1ccco1
IC50 [16]: 1.5 µM (active)
EC50 [17]: > 300 µM (not active)
EC50 [18]: > 300 µM (not active)
IC50 [19]: 2.73 µM (active)
